Columns and labels:
[1] = system: micro-capillary blood flow to skin; assay: Laser Doppler study, closed Hilltop chamber on forearm, three human female subjects (Example 6); format: in vivo; conditions: 1/10% in alcohol applied to the skin
From the text: The formulation used in these studies contained nitric oxide dispersed in a lipid matrix. […] Nitric oxide is a very rapid acting molecule, and these studies used a system that employed laser Doppler with a covered chamber. The formulation was placed into the chamber and then attached to the skin by an adhesive layer on the covering. This provided a stable measuring device as determined by multiple normal evaluations of the capillary blood flow without treatment of nitric oxide.
A known positive control, methyl nicotinate, was applied to the skin at a concentration of 1/10% in alcohol. […] The vascular dynamics are such that when the blood vessels dilate physical parameters follow Bernoulli's law. […] The laser Doppler device accurately measured these parameters.
In these studies, the participants were healthy females aged 30 to 55 years. They were in good health as determined by the medical history and were not taking any prescription medications. All study participants read and signed the informed consent statement prior to any study procedures being performed. […]
A Moor Instruments DRT4 Laser Doppler Blood Flow Monitor (Devon, England) was used in these studies. The laser Doppler technique measured blood flow in the microcapillaries of the skin that are close to the skin surface and the blood flow in underlying arterioles and venules that help to regulate skin temperature. […]

capillary circulation = assay: Laser Doppler study of creams in five human subjects (second Example 7); format: in vivo; conditions: positive control formulation containing 0.1% methyl nicotinate
From the text: This example illustrates delivery of nitric oxide formulations to five human subjects, using procedures and formulations similar to those discussed in Example 6. Each person served as their own control for the testing. A Moor Instruments Laser Doppler was used to determine circulation. […] The formulations used produce positive, almost immediate results when applied to the skin which, in these studies, was manifested by vasodilatation of the cutaneous vascular system.
For each subject, the following creams were applied: a negative control formulation (containing no NO), 0.010 gram of a 10,000 ppm NO formulation, 0.020 gram of a 10,000 ppm NO formulation, and a positive control formulation containing 0.1% methyl nicotinate. The formulations were prepared using procedures similar to those discussed in Example 1.

## COC(=O)c1cccnc1 [methyl nicotinate]
[1]
  vasodilator response (positive control): rapid response typical of the vasodilator
Capillary circulation
  vasodilatation: vasodilatation was observed

Source: patent US9950004B2, “Treatment and prevention of learning and memory disorders” (priority 2012, dated 2018)
